Patent publication US7629318B2, “Immunosuppressant compounds, methods and uses related thereto” (priority 2002, dated 2009)
Square brackets hold non-standard residues; d marks the D form. Peptide text beside a SMILES is read from it. * marks the point of attachment. Gly(1-amidinopiperidin-4-yl) = N=C(N)N1CCC([C@H](N)C(=O)O)CC1; Tic = O=C(O)[C@@H]1Cc2ccccc2CN1; Cha = N[C@@H](CC1CCCCC1)C(=O)O; NHPhenethyl = c1ccc(CCN*)cc1; Nle = CCCC[C@H](N)C(=O)O

How the values were obtained:
[1] = test system: HLA-DR1 transgenic mice, collagen induced arthritis; test: Collagen induced arthritis (CIA) mouse model for rheumatoid arthritis; type: in vivo; details: compared to solvent as control; s.c.
Procedure: CIA is induced by immunization with type II collagen in HLA-DR1 transgenic mice as described by Rosloniec et al (J. Exp. Med. 1997; 185: 113). After disease onset, mice are treated with compounds at the maximal tolerated dose s.c. for two weeks, and the disease development compared to that in mice treated with solvent only as follows:
Disease Severity Score • 1. Erythema and mild swelling confined to the tarsals or ankle joint • 2. Erythema and mild swelling extending from the ankle to the tarsals • 3. Erythema and moderate swelling extending from the ankle to the metatarsal joints • 4. Erythema and severe swelling encompass the ankle, foot, and digits

[2] = test system: DR4 transgenic mice, EAE induced by MOG; test: Experimental autoimmune encephalomyelitis (EAE) mouse model for multiple sclerosis; type: in vivo
Procedure: EAE is induced in DR4 transgenic mice by injection of myelin oligodendrocyte glycoprotein (MOG) as described by Ito et al. (1996). After disease onset, mice are treated with compounds and studied as below:
Disease Score • 1. Tail atony • 2. Hind limb weakness • 3. Hind limb paralysis • 4. Hind limb paralysis and fore limb weakness or paralysis • 5. Moribund

[3] = test system: T cell activation from 0404(DR14) chimeric MHCII-mice; test: In vivo inhibition of T cell activation by co-immunisation, DR14 mice immunised with OVA; set-up: species or system mouse; % Reduction of response to PPD(OVA): concentration or dose not given beside the values
Summary of the method: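 DR4 or DR14 chimeric MHC-II transgenic mice were co-immunised at the tail base with 50 μg HEL (DR4) or OVA (DR14) plus 210 nM compound, emulsified in CFA. After 9 days, pooled lymph node cells from 2–3 mice per group were tested for T-cell proliferation across an antigen dose range, compared with antigen-only immunisation; PPD served as a specificity control.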

[4] = test system: T cell activation from 0401(DR4) chimeric MHCII-mice; test: In vivo inhibition of T cell activation by co-immunisation, DR4 mice immunised with HEL; set-up: species or system mouse; % Reduction of response to PPD(HEL): concentration or dose not given beside the values
Excerpt: Mouse strains DR4 and DR14 carry chimeric MHC-II transgenes that encode the N-terminal domains of the respective DR molecules (forming the peptide binding site) and the remaining (2nd extracellular domains, transmembrane and intracytoplasmic domains) of the murine class II molecule I Ed. These strains are deficient of other murine class II, and thus, all helper T cell responses are triggered by peptides presented in the respective human MHC-II binding site. As an initial in vivo test of subject inhibitors designed to bind to DR, DR-transgenic mice were co-immunized with a pre-defined dose of protein antigen and different amounts of the compound antagonist to be tested. In this set-up, both antigen and compound were emulsified together in complete Freund's adjuvant (CFA), and thus, a direct competition between the two components for presentation by DR was tested. Readout of the assay is ex vivo antigen-specific activation of T cells from regional lymph nodes explanted 9 days after co-immunization. In a typical experiment, antigen dose-response was investigated, and the curves from mice immunized with antigen were compared to those from mice co-immunized with antigen+compound. The dose response curves were generated using lymph node cells pooled at equal numbers from 2-3 mice per experimental group. The experimental system also permits assessment of inherent antigenicity of the compound antagonist. This was done by setting up a dose-response study from the same cell pool using different concentrations of the compund under investigation instead of the antigen. As a specificity control, the response to Purified Protein Derivative (PPD), the major protein component of CFA, was tested in the same cell pool.
All Gpg conataining compounds have significant immunosupressive properties in one or both of the in-vivo models. Gpg-containing compounds also show improved activity or improved specificity over the Arg-containing equivilent. Further, compounds according to Formula I show activity in this assay.
Compounds of the invention were injected as an Emulsion prepared using CFA (Bacto Adjuvant Complete H37 Ra, Difco, Order-No. 3113-60); proteins 10 mg/ml in PBS, inhibitors 5 μM in 10% DMSO. CFA, PBS, antigen, and inhibitor were placed in the barrel of a 5-ml syringe (total volume not more than 1 mL). The mixture was sonicated at an amplitude less than 40% (30-35%) for two separated 15 s periods. The emulsion should seem to be hard and not liquid at this point. A drop of emulsion placed on the surface of water should not melt. The resulting emulsion was pushed through the needle into a 1 ml syringe with a needle (Gr.18, 26G×1″), and air bubbles were removed. Mice were co-immunized with 50 μg protein and 210 nM compound antagonist in final 100 μl emulsion into the tail base. Antigen+Compound and CFA are mixed 1:1 vol/vol. The best results are obtained using DR 4 mice immunised with HEL and DR 14 mice immunized with OVA.
Mice were injected at the tail-base as follows: Holding the tail of a mouse with thumb and middle finger, the index finger was placed under the base of the mouse's tail. The needle of the syringe was inserted about 1.5 cm from the tail base (hairy end) under the skin and pushed about 1 cm into the tail. 100 μl emulsion was injected into the mouse. After 9 days, mice were killed and lymph nodes removed.
The inhibitory effect of the candidate compounds on T-cell activation was tested using T-cells and antigen-presenting cells isolated from the lymph nodes of chimeric DR4-IE transgenic mice (Taconic, USA) previously co-immunized with hen egg lysozyme plus compound, or DR14-IE transgenic mice co-immunized with ovalbumin plus compound according to standard procedures (Adorini et al., 1988, Mueller et al., 1990; Current Protocols in Immunology, Vol. 2, 7.21; Ito et al., 1996). […]

## CCCC[C@H](NC(=O)[C@@H]1Cc2ccccc2CN1C(=O)[C@@H](NC(=O)[C@H](CC1CCCCC1)NC(C)=O)C1CCN(C(=N)N)CC1)C(=O)NCCc1ccccc1 [Compound P69, Ac-Cha-Gpg-Tic-Nle-N(H)CH2CH2Ph] (Ac-[Cha][Gly(1-amidinopiperidin-4-yl)][Tic][Nle]-NHPhenethyl)
[1]
  efficacy in the CIA mouse model for rheumatoid arthritis: Efficacy
[2]; P69 at 125 nM compared to P82 at 250 nM
  efficacy in the EAE mouse model in terms of disease treatment, versus Arg compound: superior
[2]; compared to solvent as control, s.c.
  efficacy in the EAE mouse model for multiple sclerosis prevention: Efficacy
[3]; DR14 mice co-immunised with OVA plus compound, mean % inhibition from the control over 3 concentrations of antigen (6.7, 20 and 60 ug)
  % Reduction of response to OVA: 65.3%
[3]; compared to the Arg-containing equivalent, antigen/mouse strain not stated in the legend
  in-vivo immunosuppressive properties following co-immunisation with antigen as measured by T-cell proliferation: Superior in-vivo immunosuppressive properties
[3]; specificity control: response to PPD in the same cell pool, OVA co-immunised mice
  % Reduction of response to PPD(OVA): 9%
[4]; DR4 mice co-immunised with HEL plus compound, mean % inhibition from the control over 3 concentrations of antigen (6.7, 20 and 60 ug)
  % Reduction of response to HEL: 59%
[4]; specificity control: response to PPD in the same cell pool, HEL co-immunised mice
  % Reduction of response to PPD(HEL): 2%
